The values that follow come from publication PMC4900628, “Critical Evaluation of P2X7 Receptor Antagonists in Selected Seizure Models” (PLoS ONE, 2016).

Structures are written as SMILES. Structures can show the parent of a compound that is named as a salt.

Assay [1] has as its target T1, mouse P2X7R (Mus musculus, UniProt Q9Z1M0).
T1 construct: expressed in transfected cells
T1 sequence (Q9Z1M0 1-595): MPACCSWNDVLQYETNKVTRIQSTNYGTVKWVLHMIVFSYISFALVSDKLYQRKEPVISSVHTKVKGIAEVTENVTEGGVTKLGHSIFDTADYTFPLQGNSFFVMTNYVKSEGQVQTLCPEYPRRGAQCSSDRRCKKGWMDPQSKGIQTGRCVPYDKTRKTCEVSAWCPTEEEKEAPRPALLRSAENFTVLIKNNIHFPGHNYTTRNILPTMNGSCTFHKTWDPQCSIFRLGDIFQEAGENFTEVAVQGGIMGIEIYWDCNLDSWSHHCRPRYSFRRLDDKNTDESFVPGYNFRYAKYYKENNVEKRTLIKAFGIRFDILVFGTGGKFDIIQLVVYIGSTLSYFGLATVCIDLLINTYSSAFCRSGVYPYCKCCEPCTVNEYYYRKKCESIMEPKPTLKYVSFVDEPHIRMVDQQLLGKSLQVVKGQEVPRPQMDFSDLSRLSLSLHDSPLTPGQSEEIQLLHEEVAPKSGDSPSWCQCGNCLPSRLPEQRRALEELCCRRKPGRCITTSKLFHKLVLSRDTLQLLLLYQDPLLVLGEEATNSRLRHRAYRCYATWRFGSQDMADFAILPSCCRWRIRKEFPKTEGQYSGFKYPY
Description: fluorometric Ca2+ assay (ATP-induced [Ca2+]i response) in HEKmP2X7 cells. It counts as cell-based. As to conditions: fluo-4, 1 mM ATP, read-out: Potency IC50 ± SEM, Mouse P2X7R. The protocol: (§1) Cells were grown in a humidified incubator at 37°C in an atmosphere supplemented with 5% CO2. […] HEK293mP2X7 were cultured in DMEM under similar conditions as described above, but containing 100 μg/ml zeocin (Invitrogen). […] Expression of the transgene was induced by supplementing the medium with 1 μg/ml tetracycline (Sigma-Aldrich, Taufkirchen, Germany) 24 h prior to the experiments. All fluorometric Ca^2+ assays in cell suspensions were performed in 384-microwell plates (Corning, No. 3655, Lowell, MA, USA) with a fluorescence-imaging microplate reader (POLARstar Omega, BMG Labtech, Offenburg, Germany) (for details, see [61, 68]). […] Microwell plates were repetitively scanned every 16 s in the fast scanning mode of the device. […] Data were normalized to the baseline values before ATP application (F/F0). […] ATP-solution was freshly prepared in Mg^2+-free HBS solution and adjusted to pH 7.4. Aliquots of stock solutions were stored at -20°C and freshly diluted with the appropriate HBS solution. […] Results are expressed as mean ± SEM. […] In the PTZ-T, the number of animals in the group with clonic seizures and the latency time were analysed using Fisher's exact probability test and the Mann-Whitney rank sum test, respectively. For multiple comparisons of the latency time a one-way ANOVA with the Holm-Sidak post hoc test was used. The influence of AFC on the plasma and brain concentrations of the antiepileptic drugs was statistical compared using the same procedure. In the PTZ-kindling model, the mean seizure stage within a group was calculated in relation to the number of PTZ-injections. Statistical comparison between vehicle- and compound-treated groups in this model was performed with two-way repeated measures ANOVA, followed by the Holm-Sidak post hoc test. […] In fully kindled rats, the calculated mean seizure stage within a group after vehicle- and compound-treatment were compared using a paired t-test. P < 0.05 was the accepted minimum level of significance.

Assay [2] concerns the target T2, rat P2X7R (Rattus norvegicus, UniProt Q64663).
T2 construct: expressed in transfected cells; host or cells: HEK293 Flp-In T-REx (HEKrP2X7), tetracycline-induced
T2 sequence (Q64663 1-595): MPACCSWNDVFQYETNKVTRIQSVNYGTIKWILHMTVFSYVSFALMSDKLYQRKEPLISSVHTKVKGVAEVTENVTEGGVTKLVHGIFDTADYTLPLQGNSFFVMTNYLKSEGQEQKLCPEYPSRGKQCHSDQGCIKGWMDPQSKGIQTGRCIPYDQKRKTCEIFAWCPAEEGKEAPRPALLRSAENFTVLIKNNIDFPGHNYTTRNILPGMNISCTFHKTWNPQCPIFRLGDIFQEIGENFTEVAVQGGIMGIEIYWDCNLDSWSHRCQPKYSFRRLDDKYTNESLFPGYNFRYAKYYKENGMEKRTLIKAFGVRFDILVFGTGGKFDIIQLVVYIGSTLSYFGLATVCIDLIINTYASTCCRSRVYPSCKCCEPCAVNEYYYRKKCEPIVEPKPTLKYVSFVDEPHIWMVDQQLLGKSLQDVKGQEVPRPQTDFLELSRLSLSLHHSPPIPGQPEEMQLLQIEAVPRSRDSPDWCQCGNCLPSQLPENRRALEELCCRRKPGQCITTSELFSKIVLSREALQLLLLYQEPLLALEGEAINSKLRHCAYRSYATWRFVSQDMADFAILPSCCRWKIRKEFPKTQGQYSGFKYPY
Description: fluorometric Ca2+ assay (ATP-induced [Ca2+]i response) in HEKrP2X7 cells. The class given is cell-based. To be noted: HEKrP2X7 cells, fluo-4, 1 mM ATP; read-out: Potency IC50 ± SEM, Rat P2X7R. The protocol: as §1

The target of assay [3] is T3, human P2X7R (Homo sapiens, UniProt Q99572).
T3 construct: expressed in transfected cells
T3 sequence (Q99572 1-595): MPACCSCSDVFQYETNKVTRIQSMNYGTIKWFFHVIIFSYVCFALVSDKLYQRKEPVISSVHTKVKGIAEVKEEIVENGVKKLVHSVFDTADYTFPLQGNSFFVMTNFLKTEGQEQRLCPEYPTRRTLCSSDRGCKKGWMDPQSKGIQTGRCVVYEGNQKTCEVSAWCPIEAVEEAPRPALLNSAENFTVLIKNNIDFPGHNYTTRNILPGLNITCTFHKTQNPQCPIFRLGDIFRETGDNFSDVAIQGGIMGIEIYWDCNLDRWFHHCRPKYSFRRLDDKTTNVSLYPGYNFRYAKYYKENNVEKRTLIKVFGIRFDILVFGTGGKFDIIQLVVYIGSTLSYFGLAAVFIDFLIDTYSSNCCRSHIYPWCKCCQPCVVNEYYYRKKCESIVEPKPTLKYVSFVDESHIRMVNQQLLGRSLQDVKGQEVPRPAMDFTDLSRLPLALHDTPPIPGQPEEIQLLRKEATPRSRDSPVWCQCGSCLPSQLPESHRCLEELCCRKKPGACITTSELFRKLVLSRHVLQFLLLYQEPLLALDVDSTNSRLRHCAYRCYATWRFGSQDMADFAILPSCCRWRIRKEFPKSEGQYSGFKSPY
Description: fluorometric Ca2+ assay (ATP-induced [Ca2+]i response) in HEKhP2X7 cells. The class given is cell-based. To be noted: fluo-4, 1 mM ATP, read-out: Potency IC50 ± SEM, Human P2X7R. How it is done: as §1

For assay [4], the system named is PTZ-induced seizures in fully PTZ-kindled rats. The assay can be described thus: PTZ-induced seizures in fully kindled rats. To be noted: fully kindled rats; 100 mg/kg i.p.; pre-drug (vehicle) value 4.0. The class given is in vivo. The text has this:
Results were expressed as mean seizure stages of a tested group in which the seizure behaviour after vehicle treatment (vehicle seizure stage) and after compound treatment (compound seizure stage), examined 3-4 days later, was matched. For comparison, the effectiveness of two antiepileptic drugs (carbamazepine and valproate) was also investigated. […] Chemicals, Toronto, Canada) was slowly added. The pH was adjusted with 1N NaOH (similar amount of NaOH as HCl), all with continuous stirring. […] The drug solutions or suspensions were prepared immediately before use; all doses refer to the salts. Animals in the control group received equivalent volumes of the vehicle (in mice always 10 ml/kg, in rats 1 ml/kg [JNJ], 3 ml/kg [AFC] or 4 ml/kg [BBG, TIIAS], depending on the solubility of the different compounds). Doses and peak time effects were selected on the basis of effective doses from corresponding in vivo studies in the literature: BBG (e.g.), tanshinone IIA (e.g.) and from manufacturer's experimental data: AFC, JNJ (see, [80]). Data were analysed using SigmaPlot (vers. 12.0, Systat Software, Erkrath, Germany) and SPSS (IBM SPSS Statistics 20, […], Germany), respectively. Results are expressed as mean ± SEM. […] In the MES-T, the current intensity inducing tonic hindlimb extensions in 50% of the mice (CC50 values with confidence limits for 95% probability) and the statistical significance was calculated using Probit analysis (SPSS). […] In the PTZ-T, the number of animals in the group with clonic seizures and the latency time were analysed using Fisher's exact probability test and the Mann-Whitney rank sum test, respectively. For multiple comparisons of the latency time a one-way ANOVA with the Holm-Sidak post hoc test was used. The influence of AFC on the plasma and brain concentrations of the antiepileptic drugs was statistical compared using the same procedure. In the PTZ-kindling model, the mean seizure stage within a group was calculated in relation to the number of PTZ-injections. Statistical comparison between vehicle- and compound-treated groups in this model was performed with two-way repeated measures ANOVA, followed by the Holm-Sidak post hoc test. The mean number of PTZ-injections needed to produce the first generalized seizure (≥ stage 3 convulsions) in the vehicle- versus compound-treated groups was statistically compared using a Mann-Whitney rank sum test. In fully kindled rats, the calculated mean seizure stage within a group after vehicle- and compound-treatment were compared using a paired t-test. P < 0.05 was the accepted minimum level of significance.

As a reminder, the IC50 is the concentration at which inhibition is half-maximal.

In the case of `Clc1cccc(-c2nnnn2Cc2cccnc2)c1Cl` [A-438079, 3-[[5-(2,3-dichlorophenyl)-1H-tetrazol-1yl]methyl]pyridine hydrochloride hydrate], the figures for the half-maximal inhibitory concentration (IC50) in assay [1], in assay [2] and in assay [3] were 0.28 ± 0.02 µM, 0.22 ± 0.01 µM and 0.07 ± 0.009 µM, respectively.
On to `O=C(CC12CC3CC(CC(C3)C1)C2)Nc1cccc2nc(NCCNCCO)ccc12` [AZ-10606120, N-[2-[[2-[(2-hydroxyethyl)amino]ethyl]amino]-5-quinolinyl]-2-tricyclo[3.3.1.13,7]dec-1-ylacetamide dihydrochloride], for which the 50% inhibitory concentration (IC50) amounted to 0.12 ± 0.005 µM in assay [1] and 0.02 ± 0.002 µM in assay [2].
For `CCCC(CCC)C(=O)O` [Ca-valproate, Ca-valproate dihydrate], the “mean seizure stage, post-drug” value in assay [4] was determined as 1.1.
